Assay results reported in patent publication US9877962B2, “Piperazinyl derivatives for the treatment of cancer” (priority 2011, dated 2018).

Legend:
Assay type in all cases: cell-based, human
MCF-7/adr = experiment: Cytotoxicity test (ViaLight Plus cell proliferation) on MCF-7/adr; conditions: Homo sapiens, NCI/ADR-RES, 72 h, adriamycin-resistant line, 72 hours' incubation, cell viability vs 0.5% DMSO control; read-out: EC50 MCF-7/adr
From the text: (§1) The effects of the compounds of the invention on the proliferation of cancer cells were studied on different human cancer cell lines of different tissue origin (MCF-7: breast cancer, MCF-7/adr adriamycin-resistant breast cancer, HL-60: acute promyelocytic leukaemia, HL-60/R10: doxorubicin-resistant acute promyelocytic leukaemia, HT29: colon adenocarcinoma, Mia Paca2: pancreatic tumour, Panc-1: pancreatic exocrine tumour, SK-OV-3: cisplatin- and adriamycin resistant ovarian cancer). The cancer cells used for this study were incubated at 37° C. in the presence of one of the compounds of the invention added to the culture medium at different concentrations.
(§2) The cancer cell lines were obtained from ATCC (American Type Culture Collection) for MCF-7, from Hôpital de la Pitié Salpetrière for MCF-7/adr and from Oncodesign (Dijon, France) for HL-60, HL-60/R10, HT29, MiaPaCa2, Panc-1 and SK-OV-3. They were cultured in RPMI 1640 medium containing 2 mM L-Glutamine supplemented with 10% foetal calf serum (Lonza; Verviers, Belgium). All the cell lines were held in culture at 37° C. in a humid atmosphere containing 5% CO2. Cell proliferation was assessed using the ViaLight® Plus Assay Kit (Lonza; Verviers, Belgium) following the manufacturer's instructions. The cells were seeded in 96-well culture plates compatible with luminescence read-off (white plates with transparent bottom) in a proportion of 5 000 to 10 000 cells per well in 100 μl of culture medium. After a pre-incubation time of 24 hours at 37° C., the compounds of the invention dissolved in dimethylsulfoxide (DMSO) were individually added to each well in a proportion of 0.5 μl per well. After 72 hours' incubation at 37° C. in a humid atmosphere containing 5% CO2, 50 μl of lysis buffer were added to each well and 15 minutes later 100 μl of ATP measuring agent were added. The plates were read under a luminometer to evaluate cell viability. The data obtained was processed by computer to obtain the EC50 value i.e. the concentration value of each of the compounds which induces 50% cell viability compared with a control value (0.5% DMSO alone).

HL-60/R10 = experiment: Cytotoxicity test (ViaLight Plus cell proliferation) on HL-60/R10; conditions: Homo sapiens, doxorubicin-resistant line, 72 hours' incubation, cell viability vs 0.5% DMSO control, read-out: EC50 HL60/R10; for IC50: HL-60, 72 h; for EC50: HL-60
From the text: as §1, §2

MCF-7 = experiment: Cytotoxicity test (ViaLight Plus cell proliferation) on MCF-7; conditions: Homo sapiens, MCF7, 72 h, 72 hours' incubation, cell viability vs 0.5% DMSO control; read-out: EC50 MCF-7
From the text: as §1, §2

HL-60 = experiment: Cytotoxicity test (ViaLight Plus cell proliferation) on HL-60; conditions: Homo sapiens, 72 hours' incubation, cell viability vs 0.5% DMSO control; for IC50: HL-60, 72 h, read-out: EC50 HL-60; for EC50: HL-60
From the text: as §1, §2

Compound | IC50 (MCF-7/adr) [nM] | IC50 (HL-60/R10) [nM] | IC50 (MCF-7) [nM] | IC50 (HL-60) [nM] | EC50 (HL-60/R10) [nM] | EC50 (HL-60) [nM]
Cc1cc(Oc2ccccc2)ccc1N(C(=O)CCl)C(C(=O)N1CCN(C(=O)OC(C)(C)C)[C@@H](C)C1)c1ccc(F)cc1 (stereo partly shown) [Example I-9] | 108 | 99 | 2500 | 771 |  | 
Cc1cc(Oc2ccccc2)ccc1N(C(=O)CCl)C(C(=O)N1C[C@@H](C)N(C(=O)OC(C)(C)C)[C@@H](C)C1)c1ccc(F)cc1 (stereo partly shown) [Example I-10] | 151 | 131 | 2500 | 641 |  | 
Cc1cc(Oc2ccccc2)ccc1N(C(=O)CCl)C(C(=O)N1CCN(C(=O)OC(C)(C)C)[C@H](C)C1)c1ccc(F)cc1 (stereo partly shown) [Example I-11] | 102 | 68 | 2500 | 939 |  | 
Cc1cc(Oc2ccccc2)ccc1N(C(=O)CCl)C(C(=O)N1CCN[C@@H](C)C1)c1ccc(F)cc1 (stereo partly shown) [Example I-12] | 421 | 82 | 1790 | 2320 | 82 | 2320
Cc1cc(Oc2ccccc2)ccc1N(C(=O)CCl)C(C(=O)N1CCN[C@H](C)C1)c1ccc(F)cc1 (stereo partly shown) [Example I-13] | 532 | 88 | 2500 | 1990 | 88 | 1990
Cc1cc(Oc2ccccc2)ccc1N(C(=O)CCl)C(C(=O)N1C[C@@H](C)N[C@@H](C)C1)c1ccc(F)cc1 (stereo partly shown) [Example I-14] | 232 | 95 | 2500 | 1850 | 95 | 1850
CC1CN(C(=O)C(c2cccs2)N(C(=O)CCl)c2cccc(C(F)(F)F)c2)CC(C)N1C(=O)OCc1ccccc1 (stereo not shown) [Example I-29] | 54 | 38 | 1030 | 939 |  | 
CC1CN(C(=O)C(c2cccs2)N(C(=O)CCl)c2ccc(Oc3ccccc3)cc2)CC(C)N1 (stereo not shown) [Example I-30] | 44 | 10 | 1010 | 202 |  | 
CC1CN(C(=O)C(c2cccs2)N(C(=O)CCl)c2ccc(Oc3ccccc3)cc2)CC(C)N1C(=O)OCc1ccccc1 (stereo not shown) [Example I-31] | 89 | 64 | 2500 | 766 |  | 
CC1CN(C(=O)C(c2cccs2)N(C(=O)CCl)c2ccc(Oc3ccccc3)cc2)CC(C)N1C(=O)OC(C)(C)C (stereo not shown) [Example I-32] | 58 | 78 | 2500 | 175 |  | 
O=C(C(c1cccs1)N(C(=O)CCl)c1ccc(Oc2ccccc2)cc1)N1CCN2CCC[C@H]2C1 (stereo partly shown) [Example I-34] | 100 | 30 | 1780 | 1120 |  | 
O=C(C(c1cccs1)N(C(=O)CCl)c1ccc(Oc2ccccc2)cc1)N1CC2CC1CN2 (stereo not shown) [Example I-35] | 863 | 249 | 632 | 300 |  | 
C[C@@H]1CN(C(=O)C(c2cccs2)N(C(=O)CCl)c2ccc(Oc3ccccc3)cc2)CCN1C(=O)OCc1ccccc1 (stereo partly shown) [Example I-36] | 24 | 28 | 2500 | 372 |  | 
Cc1cc(Oc2ccccc2)ccc1N(C(=O)CCl)C(C(=O)N1CCN(C(=O)OCc2ccccc2)[C@H](C)C1)c1cccs1 (stereo partly shown) [Example I-37] | 156 | 154 | 2500 | 967 |  | 
Cc1c(N(C(=O)CCl)C(C(=O)N2C[C@@H](C)N[C@@H](C)C2)c2cccs2)cccc1C(F)(F)F (stereo partly shown) [Example I-38] | 851 | 189 | 2500 | 2500 |  | 
CC[C@H]1CN(C(=O)C(c2cccs2)N(C(=O)CCl)c2ccc(Oc3ccccc3)cc2)CCN1 (stereo partly shown) [Example I-39] | 52 | 9 | 776 | 1810 |  | 
